In patent US12077503B2, “Substituted cyclic amides and their use as herbicides” (FMC CORPORATION, priority 2015, dated 2024):

Legend:
Assay type in all cases: in vivo
Kochia (Kochia scoparia) [1] = assay: Test A preemergence; details: Bassia scoparia, pre-emergence, 240 h
In short: (§1)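 Greenhouse, ~10 d after spray; visual injury vs untreated controls, 0 = no effect, 100 = complete control. Preemergence: directed soil spray over planted seeds. Postemergence: plants 2–10 cm, 1–2 leaf stage. Loam/sand blend. Compound in non-phytotoxic solvent with surfactant.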

[2] = tested on: barnyardgrass (Echinochloa crus-galli); assay: Test A preemergence; details: Echinochloa crus-galli, pre-emergence, 240 h
In short: as §1

[3] = tested on: giant foxtail (Setaria faberii); assay: Test A preemergence; details: Setaria faberi, pre-emergence, 240 h
In short: as §1

[4] = tested on: pigweed (Amaranthus retroflexus); assay: Test A preemergence; details: Amaranthus retroflexus, pre-emergence, 240 h
[5] = tested on: ragweed (common ragweed, Ambrosia elatior); assay: Test A preemergence; details: Ambrosia artemisiifolia, pre-emergence, 240 h
In short: as §1

[6] = tested on: ryegrass, Italian (Italian ryegrass, Lolium multiflorum); assay: Test A preemergence; details: Lolium multiflorum, pre-emergence, 240 h
In short: as §1

[7] = tested on: Galium (catchweed bedstraw, Galium aparine); assay: Test A postemergence; details: Galium, post-emergence, 240 h, read-out: Plant response rating, Galium
In short: as §1

Kochia (Kochia scoparia) [8] = assay: Test A postemergence; details: Bassia scoparia, post-emergence, 240 h, read-out: Plant response rating, Kochia
In short: as §1

[9] = tested on: barnyardgrass (Echinochloa crus-galli); assay: Test A postemergence; details: Echinochloa crus-galli, post-emergence, 240 h, read-out: Plant response rating, Barnyardgrass
In short: as §1

[10] = tested on: blackgrass (Alopecurus myosuroides); assay: Test A postemergence; details: Alopecurus myosuroides, post-emergence, 240 h, read-out: Plant response rating, Blackgrass
In short: as §1

corn (Zea mays) = assay: Test A postemergence; details: Zea mays, post-emergence, 240 h
In short: as §1

[11] = tested on: giant foxtail (Setaria faberii); assay: Test A postemergence; details: Setaria faberi, post-emergence, 240 h, read-out: Plant response rating, Foxtail, Giant
In short: as §1

[12] = tested on: pigweed (Amaranthus retroflexus); assay: Test A postemergence; details: Amaranthus retroflexus, post-emergence, 240 h, read-out: Plant response rating, Pigweed
In short: as §1

[13] = tested on: ragweed (common ragweed, Ambrosia elatior); assay: Test A postemergence; details: Ambrosia artemisiifolia, post-emergence, 240 h, read-out: Plant response rating, Ragweed
In short: as §1

[14] = tested on: ryegrass, Italian (Italian ryegrass, Lolium multiflorum); assay: Test A postemergence; details: Lolium multiflorum, post-emergence, 240 h, read-out: Plant response rating, Ryegrass, Italian
In short: as §1

[15] = tested on: wheat (Triticum aestivum); assay: Test A postemergence; details: Triticum aestivum, post-emergence, 240 h, read-out: Plant response rating, Wheat
In short: as §1

[16] = tested on: barnyardgrass (Echinochloa crus-galli); assay: Test B flooded paddy test; details: Echinochloa crus-galli, 250 g ai/ha, Flood; 0 to 100 scale where 0 is no effect and 100 is complete control; read-out: Barnyardgrass plant response rating
In short: (§2)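 Evaluation by eye, against controls, occurred 13–15 d post-treatment in a greenhouse, using a 0 (no effect) to 100 (complete control) scale. Application was into the paddy water, 3 cm deep over the soil, on 2-leaf plants.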

[17] = tested on: ducksalad (Heteranthera limosa); assay: Test B flooded paddy test; details: Heteranthera limosa, 250 g ai/ha, Flood; 0 to 100 scale where 0 is no effect and 100 is complete control; read-out: Ducksalad plant response rating
In short: as §2

rice (Oryra sativa) = assay: Test B flooded paddy test; details: Oryza sativa, 250 g ai/ha, Flood; 0 to 100 scale where 0 is no effect and 100 is complete control; read-out: Rice plant response rating
In short: as §2

[18] = tested on: sedge, umbrella (small-flower umbrella sedge, Cyperus difformis); assay: Test B flooded paddy test; details: Cyperus difformis, 250 g ai/ha, Flood; 0 to 100 scale where 0 is no effect and 100 is complete control; read-out: Sedge, Umbrella plant response rating
In short: as §2

[19] = 125 g ai/ha, Postemergence, visual injury after approximately 10 d, 0 to 100 scale where 0 is no effect and 100 is complete control
[20] = 500 g ai/ha, postemergence, visual injury, 0 to 100 scale (0 no effect, 100 complete control), approx. 10 d

CSc1ccccc1NC(=O)[C@H]1C(=O)N(C)CC[C@@H]1c1ccc(OC(F)(F)F)cc1 [Compound 1001]
0%: pest or weed control at 125 g/ha (Kochia (Kochia scoparia) [1]; 125 g ai/ha, Preemergence, visual injury rating after approximately 10 d, read-out: Kochia plant response rating (0 to 100 scale, 0 is no effect, 100 is complete control)) | pest or weed control at 500 g/ha (Kochia (Kochia scoparia) [1]; 500 g ai/ha, preemergence, visual injury rating about 10 d after treatment, 0 to 100 scale (0 no effect, 100 complete control), read-out: Kochia plant response rating) | pest or weed control at 125 g/ha ([2]; 125 g ai/ha, Preemergence, visual injury rating after approximately 10 d, read-out: Barnyardgrass plant response rating (0 to 100 scale, 0 is no effect, 100 is complete control)) | pest or weed control at 500 g/ha ([2]; 500 g ai/ha, preemergence, visual injury rating about 10 d after treatment, 0 to 100 scale (0 no effect, 100 complete control), read-out: Barnyardgrass plant response rating) | pest or weed control at 125 g/ha ([3]; 125 g ai/ha, Preemergence, visual injury rating after approximately 10 d, read-out: Foxtail, Giant plant response rating (0 to 100 scale, 0 is no effect, 100 is complete control)) | pest or weed control at 500 g/ha ([3]; 500 g ai/ha, preemergence, visual injury rating about 10 d after treatment, 0 to 100 scale (0 no effect, 100 complete control), read-out: Foxtail, Giant plant response rating) | pest or weed control at 125 g/ha ([4]; 125 g ai/ha, Preemergence, visual injury rating after approximately 10 d, read-out: Pigweed plant response rating (0 to 100 scale, 0 is no effect, 100 is complete control)) | pest or weed control at 500 g/ha ([4]; 500 g ai/ha, preemergence, visual injury rating about 10 d after treatment, 0 to 100 scale (0 no effect, 100 complete control), read-out: Pigweed plant response rating) | pest or weed control at 125 g/ha ([5]; 125 g ai/ha, Preemergence, visual injury rating after approximately 10 d, read-out: Ragweed plant response rating (0 to 100 scale, 0 is no effect, 100 is complete control)) | pest or weed control at 500 g/ha ([5]; 500 g ai/ha, preemergence, visual injury rating about 10 d after treatment, 0 to 100 scale (0 no effect, 100 complete control), read-out: Ragweed plant response rating) | pest or weed control at 125 g/ha ([6]; 125 g ai/ha, Preemergence, visual injury rating after approximately 10 d, read-out: Ryegrass, Italian plant response rating (0 to 100 scale, 0 is no effect, 100 is complete control)) | pest or weed control at 500 g/ha ([6]; 500 g ai/ha, preemergence, visual injury rating about 10 d after treatment, 0 to 100 scale (0 no effect, 100 complete control), read-out: Ryegrass, Italian plant response rating) | pest or weed control at 125 g/ha [7, 19] | pest or weed control at 500 g/ha [7, 20] | pest or weed control at 125 g/ha (Kochia (Kochia scoparia) [8]; [19]) | pest or weed control at 500 g/ha (Kochia (Kochia scoparia) [8]; [20]) | pest or weed control at 125 g/ha [9, 19] | pest or weed control at 500 g/ha [9, 20] | pest or weed control at 125 g/ha [10, 19] | pest or weed control at 500 g/ha [10, 20] | Corn plant response rating (crop injury, 0 = no effect, 100 = complete kill) at 125 g/ha (corn (Zea mays); [19]) | Corn plant response rating (crop injury, 0 = no effect, 100 = complete kill) at 500 g/ha (corn (Zea mays); [20]) | pest or weed control at 125 g/ha [11, 19] | pest or weed control at 500 g/ha [11, 20] | pest or weed control at 125 g/ha [12, 19] | pest or weed control at 500 g/ha [12, 20] | pest or weed control at 125 g/ha [13, 19] | pest or weed control at 500 g/ha [13, 20] | pest or weed control at 125 g/ha [14, 19] | pest or weed control at 500 g/ha [14, 20] | plant injury at 125 g/ha [15, 19] | plant injury at 500 g/ha [15, 20] | pest or weed control at 250 g/ha [16] | pest or weed control at 250 g/ha [17] | pest or weed control at 250 g/ha (rice (Oryra sativa)) | pest or weed control at 250 g/ha [18]
